# Results from article PMC8231556, “Inhibiting Endothelial Cell Function in Normal and Tumor Angiogenesis Using BMP Type I Receptor Macrocyclic Kinase Inhibitors” (Cancers, 2021).
# What was measured:
# [1] = tested on: BMP9-induced BRE-Luc activity; assay: BRE-luciferase transcriptional reporter assay, BMP9-stimulated EA.hy926-BRE-Luc cells; type: cell-based, human; conditions: for BMP9-induced BRE-Luc activity (fold): BMP9 1 ng/mL alone 5.0 fold
# Excerpt: The BMP responsive element (BRE)-driven transcriptional luciferase reporter, which contains SMAD1/5-SMAD4 responsive elements of the ID1 gene promoter, was used to assess the activation of the BMP/SMAD signaling pathway. A lentiviral vector carrying this reporter construct (pRRL-BRE-Luc) was generated by digesting the MLP-BRE-Luc plasmid with KpnI and SalI and then inserted into the lentivirus vector pRRL-CMV digested with XhoI and KpnI. Lentiviral particles were made using HEK 293 T cells, and EA.hy926 cells were transduced to generate BRE-Luc stably expressing cells, named as EA.hy926-BRE-Luc.
# EA.hy926-BRE-Luc cells were seeded at approximately 5 × 10^5 cells/well in a 24-well plate. Cells were serum-starved overnight by incubating with a serum-free medium. After starvation, the cells were pre-incubated with the compounds for 30 min and subsequently stimulated overnight with ligands (or vehicle control). Thereafter, the cells were lysed, and luciferase activity was measured with the firefly luciferase assay System kit (E1501, Promega Corporation, Madison, WI, USA) using a PerkinElmer luminometer. The firefly luciferase activity was normalized to protein content, which was determined using the DC protein assay kit (5000111, Bio-Rad, Hercules, CA, USA).
# [2] = tested on: BMP6-induced SMAD1/5 phosphorylation; assay: Western blot of BMP6-induced SMAD1/5 phosphorylation in EA.hy926 cells; type: cell-based, human; conditions: BMP6 50 ng/mL
# Procedure: EA.hy926 cells or HUVECs were seeded in 6-well plates and starved in a serum-free medium for 4 h after reaching 80% confluence. The compounds were added 30 min prior to stimulation with the corresponding ligands. EA.hy926 cells were incubated with BMP9 (1 ng/mL), BMP6 (50 ng/mL), TGF-β2 (1 ng/mL), or vehicle control for 1 h. For HUVECs, after 4 h starvation, the cells were pre-treated with or without the indicated compounds for 30 min and subsequently stimulated with VEGF (40 ng/mL) for 10 min. The cells were harvested and lysed in radioimmunoprecipitation assay (RIPA) lysis buffer containing 1× complete protease inhibitor cocktail (11836153001, Roche, Basel, Switzerland). The protein concentration was determined using the DC protein assay kit (5000111, Bio-Rad). After adding loading buffer, the samples were boiled and proteins separated by sodium dodecyl sulfate polyacrylamide gel electrophoresis (SDS-PAGE). Proteins in the gel were transferred to polyvinylidene difluoride (PVDF) membranes (IPVH00010, Merck Millipore, Burlington, MA, USA) and immunoblotted with 1000 times diluted primary antibodies: phospho-SMAD1/5 (9516 S, Cell Signaling Technology, Leiden, The Netherlands), phospho-SMAD2 (pSMAD2, home-made), SMAD1 (6944 S, Cell Signaling Technology), SMAD2 (3103 S, Cell Signaling Technology), phospho-extracellular signal-regulated kinase/mitogen-activated protein kinase (pERK/MAPK, 4370, Cell Signaling Technology), mitogen-activated protein kinase/ERK1/2 (ERK1/2/MAPK, 9102 S, Cell Signaling Techonol), VEGFR (2479, Cell Signaling), pVEGFR (2478, Cell Signaling Technology), α/β-Tubulin (2148, Cell Signaling Technology), glyceraldehyde 3-phosphate dehydrogenase (GAPDH, MAB374, Merck Millipore). Clarity™ enhanced chemiluminescence (ECL) reagent (1705060, Bio-Rad) was used to visualize secondary antibodies conjugated to horseradish peroxidase (HRP). GAPDH or Tubulin was used as protein loading controls. All the experiments were repeated at least three times, and representative experiments are shown. The protein bands were quantified using ImageJ (National Institutes of Health, Bethesda, MD, USA).
# [3] = tested on: HUVECs; assay: Cord formation assay, HUVEC-eGFP co-cultured with human dermal fibroblasts; type: cell-based; conditions: for effect on VEGF-induced EC cord formation: VEGF 15 ng/mL, 6 days, 0.5 µM (Sunitinib 1 μM); for effect on VEGF-induced cord length, different concentrations: dose range
# Procedure: The cord formation assay was performed according to the IncuCyte Angiogenesis PrimeKit Assay protocol (Cell Player Angiogenesis PrimeKit, Essen BioScience). In brief, GFP labeled HUVEC cells and human dermal fibroblasts were mixed in a 1:20 ratio and seeded per well in a 96-well plate (3150 cells in total). Thereafter, the cells were exposed to VEGF alone or in combination with the compounds (at indicated concentrations) in a complete assay medium. Pictures were captured every 6 h for up to 9 days To monitor the cord formation. The medium was refreshed every 2 or 3 days. Cords formation was visualized by the GFP fluorescence, and cord length was quantified with the instrument’s software. All the experiments were repeated at least three times, and representative experiments are shown.
# [4] = biological target: T1, BRAF (Homo sapiens, UniProt P15056); assay: radiometric kinase profiling (33 PanQinase); type: biochemical; conditions: read-out: Inhibitory effect (%) BRAF
# T1 construct: purchased Proqinase, Germany
# Procedure, shortened: (§1)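 Enzyme/substrate mixes were incubated with [γ-33P]-ATP and compound (added as a 0.1 μM solution in 10% DMSO) at 30 °C for 60 min, then stopped with H3PO4 and washed with NaCl. 33P incorporation was scintillation-counted, and residual activity (%) was normalized to untreated control and background.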
# [5] = biological target: T2, FGFR3 (Homo sapiens, UniProt P22607); assay: radiometric kinase profiling (33 PanQinase); type: biochemical; conditions: read-out: Inhibitory effect (%) FGFR3
# T2 construct: purchased ProQinase (33PanQinase Activity Assay)
# Procedure, shortened: as §1
# [6] = biological target: T3, FLT3 (Homo sapiens, UniProt P36888); assay: radiometric kinase profiling (33 PanQinase); type: biochemical; conditions: read-out: Inhibitory effect (%) FLT3
# T3 construct: purchased ProQinase (33PanQinase Activity Assay)
# Procedure, shortened: as §1
# [7] = biological target: T4, MAP4K4 (Homo sapiens, UniProt O95819); assay: radiometric kinase profiling (33 PanQinase); type: biochemical; conditions: read-out: Inhibitory effect (%) MAP4K4
# T4 construct: purchased ProQinase (33PanQinase Activity Assay)
# Procedure, shortened: as §1
# [8] = biological target: T5, MAP4K5 (Homo sapiens, UniProt Q9Y4K4); assay: radiometric kinase profiling (33 PanQinase); type: biochemical; conditions: read-out: Inhibitory effect (%) MAP4K5
# T5 construct: purchased ProQinase (33PanQinase Activity Assay)
# Procedure, shortened: as §1
# [9] = biological target: T6, SIK2 (Homo sapiens, UniProt Q9H0K1); assay: radiometric kinase profiling (33 PanQinase); type: biochemical; conditions: read-out: Inhibitory effect (%) SIK2
# T6 construct: purchased ProQinase (33PanQinase Activity Assay)
# Procedure, shortened: as §1
# T2 sequence (P22607 23-806): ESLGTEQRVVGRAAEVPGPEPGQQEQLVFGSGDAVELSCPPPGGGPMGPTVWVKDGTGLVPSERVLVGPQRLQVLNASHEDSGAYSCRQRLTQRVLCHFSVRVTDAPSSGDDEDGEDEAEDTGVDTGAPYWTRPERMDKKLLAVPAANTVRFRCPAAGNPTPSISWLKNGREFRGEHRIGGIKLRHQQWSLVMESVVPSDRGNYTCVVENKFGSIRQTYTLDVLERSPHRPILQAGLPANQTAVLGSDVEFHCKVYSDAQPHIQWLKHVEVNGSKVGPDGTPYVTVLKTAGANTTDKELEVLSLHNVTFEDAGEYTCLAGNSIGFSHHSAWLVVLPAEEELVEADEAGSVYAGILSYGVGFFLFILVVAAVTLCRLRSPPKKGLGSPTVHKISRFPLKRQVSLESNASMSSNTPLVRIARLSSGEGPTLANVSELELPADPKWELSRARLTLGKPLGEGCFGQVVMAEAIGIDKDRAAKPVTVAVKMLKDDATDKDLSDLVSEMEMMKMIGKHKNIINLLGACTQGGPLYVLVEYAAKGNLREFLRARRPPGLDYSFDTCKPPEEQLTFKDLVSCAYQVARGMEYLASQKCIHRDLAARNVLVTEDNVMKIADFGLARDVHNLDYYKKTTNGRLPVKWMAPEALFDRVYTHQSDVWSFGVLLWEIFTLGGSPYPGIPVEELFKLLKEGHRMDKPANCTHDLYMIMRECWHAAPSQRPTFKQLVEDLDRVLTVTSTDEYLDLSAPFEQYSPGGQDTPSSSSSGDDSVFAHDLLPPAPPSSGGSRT
# T6 sequence (Q9H0K1 whole entry): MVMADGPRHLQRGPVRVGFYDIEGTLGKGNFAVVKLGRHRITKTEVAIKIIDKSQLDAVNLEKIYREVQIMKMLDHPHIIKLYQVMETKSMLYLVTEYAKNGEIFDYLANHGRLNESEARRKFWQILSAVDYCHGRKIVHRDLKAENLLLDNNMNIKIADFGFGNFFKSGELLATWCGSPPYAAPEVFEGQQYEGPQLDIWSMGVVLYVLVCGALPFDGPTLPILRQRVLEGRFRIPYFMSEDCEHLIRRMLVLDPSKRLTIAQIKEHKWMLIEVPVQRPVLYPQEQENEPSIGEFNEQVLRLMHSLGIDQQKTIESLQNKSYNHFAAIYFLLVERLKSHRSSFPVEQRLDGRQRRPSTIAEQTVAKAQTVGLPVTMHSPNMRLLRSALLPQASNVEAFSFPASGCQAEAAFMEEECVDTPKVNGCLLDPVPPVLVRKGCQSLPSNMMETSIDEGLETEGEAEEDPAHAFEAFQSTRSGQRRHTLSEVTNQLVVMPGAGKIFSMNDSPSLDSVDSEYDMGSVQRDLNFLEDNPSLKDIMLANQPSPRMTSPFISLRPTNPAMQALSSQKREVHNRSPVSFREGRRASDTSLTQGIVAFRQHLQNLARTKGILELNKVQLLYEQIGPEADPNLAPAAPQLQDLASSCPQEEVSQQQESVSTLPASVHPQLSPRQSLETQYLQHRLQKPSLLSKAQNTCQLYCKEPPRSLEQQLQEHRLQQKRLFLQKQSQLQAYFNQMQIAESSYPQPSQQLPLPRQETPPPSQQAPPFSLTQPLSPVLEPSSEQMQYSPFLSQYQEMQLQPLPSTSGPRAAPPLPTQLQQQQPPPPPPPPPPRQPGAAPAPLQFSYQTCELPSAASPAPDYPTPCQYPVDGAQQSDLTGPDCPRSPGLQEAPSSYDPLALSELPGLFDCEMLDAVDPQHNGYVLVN
# T1 sequence (P15056 whole entry): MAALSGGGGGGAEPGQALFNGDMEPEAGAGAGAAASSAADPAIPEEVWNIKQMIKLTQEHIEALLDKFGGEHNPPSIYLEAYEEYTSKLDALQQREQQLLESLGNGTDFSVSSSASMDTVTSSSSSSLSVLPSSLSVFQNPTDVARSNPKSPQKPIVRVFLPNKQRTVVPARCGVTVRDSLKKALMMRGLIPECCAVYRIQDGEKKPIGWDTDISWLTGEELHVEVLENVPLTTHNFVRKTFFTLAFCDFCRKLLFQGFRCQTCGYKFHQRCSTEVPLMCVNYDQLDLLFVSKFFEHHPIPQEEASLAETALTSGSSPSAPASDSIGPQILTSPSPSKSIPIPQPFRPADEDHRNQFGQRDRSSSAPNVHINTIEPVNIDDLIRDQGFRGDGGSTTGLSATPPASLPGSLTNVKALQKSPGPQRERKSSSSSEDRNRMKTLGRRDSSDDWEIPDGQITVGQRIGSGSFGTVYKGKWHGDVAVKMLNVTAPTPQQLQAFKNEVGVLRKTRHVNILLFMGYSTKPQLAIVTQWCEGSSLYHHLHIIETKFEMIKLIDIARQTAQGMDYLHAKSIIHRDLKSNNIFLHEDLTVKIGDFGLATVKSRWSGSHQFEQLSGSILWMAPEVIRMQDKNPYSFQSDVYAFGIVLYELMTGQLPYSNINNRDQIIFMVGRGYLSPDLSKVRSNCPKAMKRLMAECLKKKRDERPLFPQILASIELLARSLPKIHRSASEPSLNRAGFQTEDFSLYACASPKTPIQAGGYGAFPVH
# T5 sequence (Q9Y4K4 whole entry): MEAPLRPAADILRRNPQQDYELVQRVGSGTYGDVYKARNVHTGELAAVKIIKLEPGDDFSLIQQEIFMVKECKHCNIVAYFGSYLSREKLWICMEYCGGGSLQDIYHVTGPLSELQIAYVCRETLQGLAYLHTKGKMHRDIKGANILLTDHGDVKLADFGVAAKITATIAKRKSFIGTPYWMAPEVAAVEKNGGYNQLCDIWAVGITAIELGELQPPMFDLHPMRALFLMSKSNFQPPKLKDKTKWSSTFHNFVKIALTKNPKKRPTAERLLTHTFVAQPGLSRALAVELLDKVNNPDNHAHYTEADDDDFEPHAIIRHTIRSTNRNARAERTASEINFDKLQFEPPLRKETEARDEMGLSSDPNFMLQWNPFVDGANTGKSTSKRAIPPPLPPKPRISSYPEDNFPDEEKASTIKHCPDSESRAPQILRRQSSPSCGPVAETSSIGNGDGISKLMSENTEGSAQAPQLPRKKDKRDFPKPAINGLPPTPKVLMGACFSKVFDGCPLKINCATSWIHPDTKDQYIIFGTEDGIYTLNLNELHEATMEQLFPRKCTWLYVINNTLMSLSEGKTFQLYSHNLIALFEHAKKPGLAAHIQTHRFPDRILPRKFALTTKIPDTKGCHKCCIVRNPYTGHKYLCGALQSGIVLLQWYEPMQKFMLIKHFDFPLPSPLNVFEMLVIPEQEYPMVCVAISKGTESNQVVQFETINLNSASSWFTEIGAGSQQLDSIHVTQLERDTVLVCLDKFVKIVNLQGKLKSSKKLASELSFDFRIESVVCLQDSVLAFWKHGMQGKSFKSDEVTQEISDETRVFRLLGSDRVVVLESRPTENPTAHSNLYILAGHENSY
# T3 sequence (P36888 27-993): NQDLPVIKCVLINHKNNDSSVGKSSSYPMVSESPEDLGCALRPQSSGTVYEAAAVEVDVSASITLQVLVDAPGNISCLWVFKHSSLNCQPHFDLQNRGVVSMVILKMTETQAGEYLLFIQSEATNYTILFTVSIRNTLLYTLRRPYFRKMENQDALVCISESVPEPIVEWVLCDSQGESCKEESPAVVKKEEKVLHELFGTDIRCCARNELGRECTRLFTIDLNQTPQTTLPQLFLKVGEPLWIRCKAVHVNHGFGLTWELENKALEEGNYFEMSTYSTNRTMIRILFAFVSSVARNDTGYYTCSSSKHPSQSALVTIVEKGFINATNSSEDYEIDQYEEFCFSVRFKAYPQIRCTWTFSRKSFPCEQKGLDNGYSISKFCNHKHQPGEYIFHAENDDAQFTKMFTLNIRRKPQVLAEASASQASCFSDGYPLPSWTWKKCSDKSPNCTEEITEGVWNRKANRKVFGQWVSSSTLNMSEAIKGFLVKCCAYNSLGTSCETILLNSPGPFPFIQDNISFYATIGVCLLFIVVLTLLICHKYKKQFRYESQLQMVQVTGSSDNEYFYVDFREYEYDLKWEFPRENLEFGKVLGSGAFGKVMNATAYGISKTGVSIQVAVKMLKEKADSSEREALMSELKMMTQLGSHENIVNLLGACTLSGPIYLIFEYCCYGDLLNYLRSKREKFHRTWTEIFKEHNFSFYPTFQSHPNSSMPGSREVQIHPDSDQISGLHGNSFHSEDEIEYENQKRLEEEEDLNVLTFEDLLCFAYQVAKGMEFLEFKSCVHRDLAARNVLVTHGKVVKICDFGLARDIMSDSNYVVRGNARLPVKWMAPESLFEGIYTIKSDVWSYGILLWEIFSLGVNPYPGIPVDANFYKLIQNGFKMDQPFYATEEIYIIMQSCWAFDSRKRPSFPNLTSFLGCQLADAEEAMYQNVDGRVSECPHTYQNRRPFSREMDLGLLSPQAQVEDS
SMILES,BMP9-induced BRE-Luc activity (fold) ([1]; 0.5 μM compound),BMP9-induced BRE-Luc activity (fold) ([1]; 1 μM compound),effect on BMP6-induced SMAD1/5 phosphorylation ([2]; 0.1 µM compound),effect on BMP6-induced SMAD1/5 phosphorylation ([2]; 1 µM compound),effect on VEGF-induced EC cord formation [3],"effect on VEGF-induced cord formation at 0.1 μM ([3]; VEGF 20 ng/mL, 9 days, 0.1 μM)","effect on VEGF-induced cord length, different concentrations ([3]; VEGF 20 ng/mL, 9 days)",inhibition at 0.1 µM [4],inhibition at 0.1 µM [5],inhibition at 0.1 µM [6],inhibition at 0.1 µM [7],inhibition at 0.1 µM [8],inhibition at 0.1 µM [9],BMP9-induced BRE-Luc activity (fold) ([1]; 0.1 μM compound),effect on BMP9-induced BRE activity ([1]; 1 μM compound),"effect on VEGF-induced cord formation at 0.5 μM ([3]; VEGF 20 ng/mL, 9 days, 0.5 μM)",effect on BMP9-induced BRE activity ([1]; 0.5 μM compound)
CN1CCC(=O)NCCNc2ccn3ncc(c3n2)-c2cccc(c2)C1 [OD29],3.1 fold,0.9 fold,failed to antagonize,very weak inhibitory effect,antagonized,effectively attenuated,antagonized in a dose-dependent manner,5.1%,49.5%,-4.23%,13.5%,19.1%,1.13%,,,,
"CNC(=O)c1ccccc1Sc1ccc2c(/C=C/c3ccccn3)n[nH]c2c1 [Axitinib, reference compound]",,,,,,,potently inhibited,,,,,,,,,,
CN1CCc2cccc(c2)Nc2nccc(n2)N2CCCc3cc(ccc32)C1 [OD16],,,efficiently inhibited,,antagonized,,antagonized in a dose-dependent manner,5.01%,14.8%,4.56%,-0.07%,14.6%,43.8%,2.1 fold,nearly completely inhibited,apparent inhibitory effects,
"c1ccc2c(-c3cnn4cc(-c5ccc(N6CCNCC6)cc5)cnc34)ccnc2c1 [LDN-193189, reference compound]",,,efficiently inhibited,,no inhibitory effect and even slightly enhanced,,,,,,,,,,nearly decreased to basal levels,,significantly inhibited
